Data: patent US9925134B2, “Use of substances to protect FGF-2 or FGF-beta growth factor” (BASF Beauty Care Solutions France SAS, priority 2007, dated 2018)
One block for each molecule: values may come before it.

Tests used:
[1] = test system: normal human fibroblasts; experiment: Stimulation of collagen synthesis, 3H-proline incorporation; assay type: cell-based; conditions: Vitamin C 20 μg/ml; 48 hrs
Protocol: A control was made in parallel with medium only. After 24 hrs of contact, radioactive […]-proline) is added to the medium. At the end of the experiment, the supernatants are collected for dosing the incorporation of radioactive […] into the intracellular proteins.

[2] = test system: normal human dermal fibroblasts; experiment: Fibroblast proliferation by FGF-2 protected by heparin or extract 5c (PNPP); assay type: cell-based; conditions: for Proliferation (expressed as percent relative to the non-treated well): 48 hrs, heparin 0.01% during 24 hrs at 37° C.
Protocol: A solution of FGF-2 is prepared extemporaneously (=non-degraded FGF-2); a solution of FGF-2 is placed for 24 hrse at 37° C. in the absence (=degraded FGF-2) and in the presence of heparin (=FGF-2+heparin at 37° C.) at 0.01%.
Each FGF-2 solution is diluted so as to be applied on the cells, the final FGF-2 concentrations being the following: 0.1, 0.25, 0.5, 0.75 and 1 ng/ml.
Normal human dermal fibroblasts were sown at low density in 6-well plates. They were then grown in a medium in the absence (control) or in the presence of FGF-2 at various concentrations.
After 48 hrs, the activity of intracellular acid phosphatases (PNPP) is dosed, so as to be able to evaluate the effect of FGF-2 solutions, either treated or not, on cell proliferation.
The results are expressed as a proliferation percentage relative to the control well i.e. to the non-treated well.
The same experiment was conducted by replacing heparin with extract 5c. The FGF-2 solution put into the presence of 0.5% of extract 5c is placed for 24 hrs at 37° C. The solution is then diluted so as to apply 0.5 ng/ml of FGF-2 in the wells containing the fibroblasts.
The 5c extract concentration finally applied on the cells is 0.0025%. It was checked beforehand that this 5c extract concentration was not capable of inducing stimulation of the proliferation of fibroblasts. This means that the observed stimulation of proliferation is actually due to the protection of FGF-2 by extract 5c (see Table 8).

[3] = test system: normal human fibroblasts; experiment: Stimulation of synthesis of total GAGs, radioactive glucosamine incorporation; assay type: cell-based; conditions: TGF-β 10 ng/ml; 72 hrs
Protocol: (§1) Normal human fibroblasts stemming from a donor, were grown in 96-well plates with medium (consisting of DMEM, glutamine 2 mM, penicillin 50 IU/ml-streptomycin 50 μg/ml, 10% fetal calf serum) for 24 hrs. […] A control was made in parallel with the medium only.
After 48 hrs of contact, radioactive glucosamine (D-(6-^3H)-glucosamine) is added to the medium.
(§2) At the end of the experiment, the supernatants are collected for dosing the incorporation of radioactive glucosamine into the intracellular proteins. Dosage of the proteins is performed with a commercial kit (BioRad 500-0116).

[4] = test system: normal human fibroblasts; experiment: Stimulation of synthesis of sulfated GAGs, 35S-sulfate incorporation; assay type: cell-based; conditions: TGF-β 10 ng/ml
Protocol: as §1, §2
In the same way, a study of the incorporation of ^35S-sulfate is conducted for quantifying the sulfated GAGs. The applied procedure is the same as that for the total GAGs, except for the nature of the radioactive precursor.

[5] = biological target: T1, FGF-2 (Homo sapiens, UniProt P09038); experiment: Protection of FGF-2 against thermal degradation, stress of 2.15 hrs at 45° C., FGF-2 dosed by ELISA kit; assay type: biochemical; conditions: for FGF-2 protection by GAGs and proteoglycans of the skin (in words): solutions at 0.1%
Protocol: Degradation of FGF-2 observed at about 50° C. is particularly interesting, because a short period of time allows degradation of FGF-2 of about 80%, thereby allowing a large number of tests to be conducted. For this reason, it was decided to achieve screening with a stress of 2.15 hrs at 45° C. and to study the capacity of a large number of actives for protecting FGF-2 against this thermal degradation.
The applied screening model is the following: • 180 μl of a 4.5 ng/ml FGF-2 solution prepared in 0.1% BSA/PBS buffer are distributed in a 96-well microplate. 20 μl of distilled water or 0.05% heparin or a solution containing various active ingredients extracted from different plants to be tested are added. The plate is stirred by means of a plate stirrer and then covered with adhesive tape and placed in an oven at 45° C. for 2.15 hrs. At the end of the incubation period, the plate is taken out and dosage of FGF-2 is then carried out by means of the ELISA kit.
A control plate only containing FGF-2 and distilled water, treated under the same conditions, is left at room temperature.
The results are expressed as a FGF-2 protection percentage relatively to the non-stressed or non-degraded FGF-2 control.
The stress protocol described in Example 2 was applied, 20 μl of water being substituted with 20 μl of corresponding GAG or PG solution. The tested GAGs and PGs thereby undergo additional dilution to 1/10. […]
Target sequence in this assay (P09038 143-288): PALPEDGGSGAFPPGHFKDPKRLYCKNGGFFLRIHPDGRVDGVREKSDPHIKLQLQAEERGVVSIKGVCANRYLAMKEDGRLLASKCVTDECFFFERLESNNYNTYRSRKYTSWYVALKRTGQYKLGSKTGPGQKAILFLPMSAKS

[6] = biological target: T1, FGF-2; experiment: Protection of FGF-2 at physiological temperature, FGF-2 dosed after 24 hrs at 37° C.; assay type: biochemical; conditions: 0.01% heparin
Protocol: It was absolutely necessary to check whether the extract 5c was able to protect FGF-2 at a physiological temperature, i.e., 37° C. This is why an investigation consisted of dosing FGF-2 after 24 hrs at 37° C. in the absence or in the presence of increasing concentrations of extract 5c.
Target sequence in this assay (P09038 143-288): as above

[7] = biological target: T1, FGF-2; experiment: Study of thermal degradation (stability) of FGF-2 at various temperatures with or without heparin, ELISA; assay type: physicochemical; conditions: 0.05% heparin
Protocol: A 5 ng/ml solution of FGF-2 in a 10 mM PBS buffer with 0.1% BSA and 0.1% of methylparaben is prepared.
This solution is placed at various temperatures: 4° C., 20° C., 37° C., 50° C., and 80° C. either in the presence of heparin or not at 500 μg/ml.
Dosages of FGF-2 with a commercial ELISA kit (R&D system, France) are performed at different times (T=0, 3 hrs, 24 hrs and 48 hrs) so as to establish degradation kinetics for each temperature of investigation.
The results are expressed as a percentage of FGF-2 relative to time T=0. The experiments are conducted in triplicates (n=3). The obtained results are illustrated in FIGS. 1 and 2.
Target sequence in this assay (P09038 143-288): as above

[8] = biological target: T1, FGF-2; conditions: pH 2 and pH 9 versus neutral pH; cited from earlier work
Target sequence in this assay (P09038 134-288 limits assumed): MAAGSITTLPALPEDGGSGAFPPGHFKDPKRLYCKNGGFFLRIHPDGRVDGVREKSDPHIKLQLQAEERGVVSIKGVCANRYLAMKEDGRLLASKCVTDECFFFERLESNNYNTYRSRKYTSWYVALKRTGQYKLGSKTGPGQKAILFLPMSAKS

[9] = biological target: T1, FGF-2; conditions: cited from earlier work
Target sequence in this assay (P09038 134-288 limits assumed): as above

[10] = biological target: T1, FGF-2; conditions: 3 hours of incubation at 37° C.; cited from earlier work
Target sequence in this assay (P09038 134-288 limits assumed): as above

[11] = 0.01%, 0.001%, further diluted 1/10, 45° C. 2.15 hrs

Molecule: O=C1O[C@H]([C@@H](O)CO)C(O)=C1O [Vitamin C, vitamin C]
% control (collagen synthesis) [1]: 170%
cpm (3H-proline incorporation) [1]: 10185 cpm

Molecule: Degraded FGF-2: solution of FGF-2 placed for 24 hrs at 37° C. in the absence of heparin
Proliferation (as a percentage) of fibroblasts relative to the non-treated control ([2]; FGF-2 0.5 ng/ml, 0.5% 5c extract during 24 hrs at 37° C. (0.0025% on the cells)): 123.7% ± 0.005
Proliferation (expressed as percent relative to the non-treated well) ([2]; FGF-2 concentration 0.1 ng/ml): 96.2 ± 0.014%
Proliferation (expressed as percent relative to the non-treated well) ([2]; FGF-2 concentration 0.25 ng/ml): 111 ± 0.006%
Proliferation (expressed as percent relative to the non-treated well) ([2]; FGF-2 concentration 0.5 ng/ml): 123.7 ± 0.005%
Proliferation (expressed as percent relative to the non-treated well) ([2]; FGF-2 concentration 0.75 ng/ml): 132.5 ± 0.004%
Proliferation (expressed as percent relative to the non-treated well) ([2]; FGF-2 concentration 1 ng/ml): 146.4 ± 0.01%

Molecule: TGF-β
% control, total GAGs [3]: 240%
Activity (cpm), total GAGs [3]: 2590 cpm
Ratio (act./Prot.), total GAGs [3]: 709
% control, sulfated GAGs [4]: 176%
Activity (cpm), sulfated GAGs [4]: 5442 cpm
Ratio (act./Prot.), sulfated GAGs [4]: 1491

FGF-2 protection by GAGs of the skin ([5]; chondroitin sulfate solutions at 0.1%, 0.01%, 0.001%, further diluted 1/10, 45° C. 2.15 hrs): < 100%
FGF-2 protection by GAGs and proteoglycans of the skin (in words) [5, 11]: depends on its dose
Molecule: chondroitin sulfate

FGF-2 protection by GAGs and proteoglycans of the skin (in words) [5, 11]: protects FGF-2
Molecule: dermatan sulfate

FGF-2 protection by GAGs and proteoglycans of the skin (in words) [5, 11]: protects FGF-2
Molecule: heparan sulfate [Heparin sulfate]

Protection of FGF-2, positive control ([5]; 0.01% heparin in the final reaction medium, 45° C. stress of Example 2): 105.52%±3.04
Protection of FGF-2, positive control [6]: 110.53%±3.20
Protection of FGF-2 by heparin (in words) ([7]; 80° C.): not effective
Stability of FGF-2 in the presence of heparin (in words) ([7]; various temperatures): degradation is stopped
Molecule: heparin
Proliferation with FGF-2 protected by heparin (in words) ([2]; heparin 0.01%, up to 0.5 ng/ml FGF-2): proliferation is maintained
Activity of FGF-2 at acid and basic pH in the presence of heparin (in words) [8]: retain a similar (or even slightly weaker) activity of FGF-2
Protection of the activity of FGF-2 by heparin (in words) ([9]; 0° C., 20° C., 37° C., 1 hr to 60 days): provides protection of the activity of FGF-2 over time
Activity of FGF-2 in the presence of heparin (in words) ([9]; 60° C. and 90° C.): no activity is detected
Protection of FGF-2 against trypsin and chymotripsin (in words) [10]: total protection of FGF-2

FGF-2 protection by GAGs and proteoglycans of the skin (in words) [5, 11]: by no means allows FGF-2 to be protected
Molecule: hyaluronic acid [Hyaluronan]

FGF-2 protection by GAGs and proteoglycans of the skin (in words) [5, 11]: inefficient
B1: decorin: proteoglycan consisting of chondroitin sulfate and dermatan sulfate chains (protein, UniProt P07585 31-359, looked up)
Decorin: DEASGIGPEVPDDRDFEPSLGPVCPFRCQCHLRVVQCSDLGLDKVPKDLPPDTTLLDLQNNKITEIKDGDFKNLKNLHALILVNNKISKVSPGAFTPLVKLERLYLSKNQLKELPEKMPKTLQELRAHENEITKVRKVTFNGLNQMIVIELGTNPLKSSGIENGAFQGMKKLSYIRIADTNITSIPQGLPPSLTELHLDGNKISRVDAASLKGLNNLAKLGLSFNSISAVDNGSLANTPHLRELHLDNNKLTRVPGGLAEHKYIQVVYLHNNNISVVGSSDFCPPGHNTKKASYSGVSLFSNPVQYWEIQPSTFRCVYVRSAIQLGNYK
